Assay: Example 1 PK sub-study, plasma iloprost by LC-MS
Assay type: in vivo, human
Conditions: for CLss, Mean (SD): n 1
Method: Eligible subjects were given the option to participate in a PK sub-study. Subjects who participated in the sub-study provided plasma samples for PK analysis. The samples were analyzed for iloprost concentrations using validated liquid chromatography mass spectrometry methods.
The following PK parameters were calculated whenever possible, based on the plasma concentrations of iloprost: • Steady state plasma concentration just before infusion was stopped • Area under the plasma concentration versus time curve (AUC) from time of dosing to the last time point with measurable concentration (AUC0-last) • AUC from time 0 extrapolated to infinity (AUC0-inf) • Percentage of AUC obtained by extrapolation (AUCextrape %) • Terminal elimination constant (λz) • Plasma terminal elimination half-life (t½) • Plasma clearance (CL), calculated as dose/AUC0-inf • Volume of distribution (V), calculated as dose/(λz×AUC0-inf) Safety

## CC#CCC(C)[C@H](O)/C=C/[C@@H]1[C@H]2C/C(=C/CCCC(=O)O)C[C@H]2C[C@H]1O (stereo partly drawn) [Iloprost, (5E)-5-[(3aS,4R,5R,6aS)-5-hydroxy-4-[(E,3S)-3-hydroxy-4-methyloct-1-en-6-ynyl]-3,3a,4,5,6,6a-hexahydro-1H-pentalen-2-ylidene]pentanoic acid]
Maximum Tolerated Dose Level 1.00 ng/kg/min
  CLss, Mean (SD): 91.22 (NA) L/h
Maximum Tolerated Dose Level 1.50 ng/kg/min
  CLss, Mean (SD): 6.01 (NA) L/h
Maximum Tolerated Dose Level 1.50 ng/kg/min, n 2
  Css, Geometric mean (geometric CV %): 32.90 (284.8) pg/mL
Maximum Tolerated Dose Level 2.00 ng/kg/min
  CLss, Mean (SD): 64.53 (NA) L/h

Reference: patent US12409184B2, “Iloprost compositions and formulations thereof” (BTG INTERNATIONAL INC., priority 2020, dated 2025)
